Test results: US12427212B2, “Nectin-4 binding miniproteins, conjugates and uses thereof” (Aktis Oncology, Inc., priority 2023, dated 2025)
Bridges are numbered along the chain shown (N, C = ends). Primed or numbered codes have the meaning given here. [ ]: non-standard residue; d: D form. The star is where a group is joined. Arg(NO2) = N=C(NCCC[C@H](N)C(=O)O)N[N+](=O)[O-]; Biotin = O=C1N[C@H]2[C@H](CS[C@H]2CCCCC(=O)*)N1; Lys(Me3) = C[N+](C)(C)CCCC[C@H](N)C(=O)O; Lys(iPr) = CC(C)NCCCC[C@H](N)C(=O)O; Lys(Me2) = CN(C)CCCC[C@H](N)C(=O)O; Cit = NC(=O)NCCC[C@H](N)C(=O)O; Lys(Me) = CNCCCC[C@H](N)C(=O)O; PEG4 = NCCOCCOCCOCCOCCC(=O)O; PEG4″ = 4(ethylene glycol); PEG4′ = not defined here

Columns and labels:
[1] = in vivo; conditions: Sprague Dawley, rat, iv
Protocol: To begin, double jugular vein-cannulated Sprague Dawley rats were dosed with bolus intravenous injections of miniproteins (0.03-0.3 mg/kg) and FITC-sinistrin. Nine blood collection timepoints were taken from 0-2 h, processed to plasma with K2 EDTA, and were frozen for subsequent bioanalysis. Plasma miniprotein concentrations were measured by LC-MS/MS. To control for inter-animal renal clearance differences, and to compare with glomerular filtration rate (GFR), the miniprotein was co-formulated with a molecular marker of GFR, FITC-sinistrin (FS) (Pill et al., 2005). Plasma FITC-sinistrin was measured fluorometrically. All unknown sample measurements were interpolated against known authentic standards spiked into normal rat plasma to calculate concentration. Finally, non-compartmental analysis was performed to estimate plasma pharmacokinetic parameters.

[2] = tested on: Opossum kidney proximal tubule cells; assay: Proximal tubule epithelial cell uptake assay; assay type: cell-based; conditions: relative to control miniprotein C306; for % Uptake of C306: Table 10B, opossum kidney proximal tubule cells, modified lysine miniproteins; for % Uptake of C306 (Control): Table 10A, mean percent uptake in opossum kidney cells, 1 h at 37° C.
Protocol: FIG. 8 is a bar graph of the percent uptake of exemplary miniproteins tested at 20 µM in a proximal tubule epithelial cell assay vs 20 μM control peptide set at 100%. […]
Opossum kidney proximal tubule cells were plated in the upper chamber of 24-well transwell plates containing 600 μL of growth media in the lower chamber and were incubated overnight at 37° C., in 5% CO2. The following day, the media was changed, and cells were incubated an additional 24 h with orbital shaking at 146 RPM. Next, cells were washed and treated in duplicates with biotinylated exemplary miniproteins pre-complexed with streptavidin-AF647 for 1 h at 37° C., and 5% C02 with continuous orbital shaking. Following incubation, cells were washed three times with 1×PBS and lysed with RIPA buffer containing protease and phosphatase inhibitor cocktail and a universal nuclease for 30 minutes. Uptake was measured on 100 μL of lysates using a fluorimeter. Mean % uptake values of control miniprotein C306 in the presence of exemplary miniproteins are provided in TABLE 10A and summarized in FIG. 8.
Uptake of engineered Nectin-4 miniproteins with further modified lysine residues (C298-C304, as described in Example 4B) was evaluated. Percent uptake of these exemplary Nectin-4-targeting miniproteins and C251 were determined against a control miniprotein, C306, using opossum kidney proximal tubule cells as described in Example 18A. Percent uptake of C298, which has an unmodified lysine (K) at amino acid position 26 (along the length of the miniprotein sequence. SEQ ID NO: 162), was 37% in the presence of […]. All other miniproteins having a modified lysine (modified with one or more small alkyl groups of monomethyl, dimethyl, trimethyl, or isopropyl group) had (i) kidney uptake similar to that of C251 and (ii) reduced uptake as compared to C298, which has an unmodified lysine at position 26.

Row | Compound | % Uptake of C306 [2] [%] | % Uptake of C306 (Control) [2] | also measured
1 | CC[C@H](C)[C@@H]1NC(=O)[C@H](Cc2ccc(O)cc2)NC(=O)[C@H](CC(=O)O)NC(=O)[C@@H]2CSSC[C@@H](C(=O)N[C@@H](CO)C(=O)O)NC(=O)CNC(=O)[C@H](CC(C)C)NC(=O)[C@H](CC(N)=O)NC(=O)[C@H](CC(=O)O)NC(=O)[C@H](CC(C)C)NC(=O)[C@H]([C@@H](C)CC)NC(=O)[C@H](CCC(=O)O)NC(=O)[C@H](CCC(=O)O)NC(=O)[C@H]([C@@H](C)CC)NC(=O)[C@H](CSSC[C@H](NC(=O)CCOCCOCCOCCOCCNC(=O)CN3CCN(CC(=O)O)CCN(CC(=O)O)CCN(CC(=O)O)CC3)C(=O)N[C@@H](CCC(=O)O)C(=O)N[C@@H](Cc3ccc(O)cc3)C(=O)N[C@@H](CC(=O)O)C(=O)N[C@@H](CCC(=O)O)C(=O)N[C@@H](CCC(N)=O)C(=O)N[C@@H](Cc3ccccc3)C(=O)N[C@@H](Cc3ccccc3)C(=O)N[C@@H]([C@@H](C)O)C(=O)N[C@@H](C)C(=O)N[C@@H](CC(C)C)C(=O)N[C@@H](CCCCN)C(=O)N[C@@H](CCCNC(=N)N)C(=O)N[C@@H](CC(C)C)C(=O)N[C@@H](CCCNC(=N)N)C(=O)NCC(=O)N[C@@H](CC(=O)O)C(=O)N[C@@H](CC(=O)O)C(=O)N[C@@H]([C@@H](C)CC)C(=O)N2)NC(=O)[C@H](CC(C)C)NC(=O)CNC(=O)[C@@H]2CCCN2C(=O)[C@H](CC(C)C)NC(=O)[C@H](Cc2ccc(O)cc2)NC(=O)[C@H](CCC(N)=O)NC(=O)[C@H](Cc2ccccc2)NC(=O)[C@H](CO)NC(=O)[C@H](C)NC(=O)[C@H](CCC(N)=O)NC1=O [Compound C237] |  |  | half-life [1]: 28.4 min
2 | CC[C@H](C)[C@@H]1NC(=O)[C@H](Cc2ccc(O)cc2)NC(=O)[C@H](CCC(=O)O)NC(=O)[C@@H]2CSSC[C@@H](C(=O)N[C@@H](CO)C(=O)O)NC(=O)CNC(=O)[C@H](CC(C)C)NC(=O)[C@H](CC(N)=O)NC(=O)[C@H](CC(=O)O)NC(=O)[C@H](CC(C)C)NC(=O)[C@H]([C@@H](C)CC)NC(=O)[C@H](CCC(=O)O)NC(=O)[C@H](CCC(=O)O)NC(=O)[C@H]([C@@H](C)CC)NC(=O)[C@H](CSSC[C@H](NC(=O)CCOCCOCCOCCOCCNC(=O)CN3CCN(CC(=O)O)CCN(CC(=O)O)CCN(CC(=O)O)CC3)C(=O)N[C@@H](CC(=O)O)C(=O)N[C@@H](Cc3ccc(O)cc3)C(=O)N[C@@H](CC(=O)O)C(=O)N[C@@H](CCC(=O)O)C(=O)N[C@@H](CCC(N)=O)C(=O)N[C@@H](Cc3ccccc3)C(=O)N[C@@H](Cc3ccccc3)C(=O)N[C@@H]([C@@H](C)O)C(=O)N[C@@H](C)C(=O)N[C@@H](CC(C)C)C(=O)N[C@@H](CCCCN)C(=O)N[C@@H](CCCNC(=N)N)C(=O)N[C@@H](CC(C)C)C(=O)N[C@@H](CCCNC(=N)N)C(=O)NCC(=O)NCC(=O)N[C@@H](CC(=O)O)C(=O)N[C@@H]([C@@H](C)CC)C(=O)N2)NC(=O)[C@H](CC(C)C)NC(=O)CNC(=O)[C@@H]2CCCN2C(=O)[C@H](CC(C)C)NC(=O)[C@H](Cc2ccc(O)cc2)NC(=O)[C@H](CCC(N)=O)NC(=O)[C@H](Cc2ccccc2)NC(=O)[C@H](CO)NC(=O)[C@H](C)NC(=O)[C@H](CCC(N)=O)NC1=O [Compound C240] |  |  | half-life [1]: 29.7 min
3 | CC[C@H](C)[C@@H]1NC(=O)[C@H](Cc2ccc(O)cc2)NC(=O)[C@H](CCC(N)=O)NC(=O)[C@@H]2CSSC[C@@H](C(=O)N[C@@H](CO)C(=O)O)NC(=O)CNC(=O)[C@H](CC(C)C)NC(=O)[C@H](CC(N)=O)NC(=O)[C@H](CC(=O)O)NC(=O)[C@H](CC(C)C)NC(=O)[C@H]([C@@H](C)CC)NC(=O)[C@H](CCC(=O)O)NC(=O)[C@H](CCC(=O)O)NC(=O)[C@H]([C@@H](C)CC)NC(=O)[C@H](CSSC[C@H](NC(=O)CCOCCOCCOCCOCCNC(=O)CCCC[C@@H]3SC[C@@H]4NC(=O)N[C@@H]43)C(=O)N[C@@H](CCC(=O)O)C(=O)N[C@@H](Cc3ccc(O)cc3)C(=O)N[C@@H](CC(=O)O)C(=O)N[C@@H](CCC(=O)O)C(=O)N[C@@H](CCC(=O)O)C(=O)N[C@@H](Cc3ccccc3)C(=O)N[C@@H](Cc3ccccc3)C(=O)N[C@@H]([C@@H](C)O)C(=O)N[C@@H](C)C(=O)N[C@@H](CC(C)C)C(=O)N[C@@H](C)C(=O)N[C@@H](CCCNC(=N)N)C(=O)N[C@@H](CC(C)C)C(=O)N[C@@H](CCCNC(=N)N)C(=O)NCC(=O)NCC(=O)N[C@@H](CC(=O)O)C(=O)N[C@@H]([C@@H](C)CC)C(=O)N2)NC(=O)[C@H](CC(C)C)NC(=O)[C@H](C)NC(=O)[C@@H]2CCCN2C(=O)[C@H](CC(C)C)NC(=O)[C@H](Cc2ccc(O)cc2)NC(=O)[C@H](CCC(N)=O)NC(=O)[C@H](Cc2ccccc2)NC(=O)[C@H](CCCCN(C)C)NC(=O)[C@H](C)NC(=O)[C@H](CCC(N)=O)NC1=O [Compound C300] | 3 |  | 
4 | CC[C@H](C)[C@@H]1NC(=O)[C@H](Cc2ccc(O)cc2)NC(=O)[C@H](CCC(N)=O)NC(=O)[C@@H]2CSSC[C@@H](C(=O)N[C@@H](CO)C(=O)O)NC(=O)CNC(=O)[C@H](CC(C)C)NC(=O)[C@H](CC(N)=O)NC(=O)[C@H](CC(=O)O)NC(=O)[C@H](CC(C)C)NC(=O)[C@H]([C@@H](C)CC)NC(=O)[C@H](CCC(=O)O)NC(=O)[C@H](CCC(=O)O)NC(=O)[C@H]([C@@H](C)CC)NC(=O)[C@H](CSSC[C@H](NC(=O)CCOCCOCCOCCOCCNC(=O)CCCC[C@@H]3SC[C@@H]4NC(=O)N[C@@H]43)C(=O)N[C@@H](CCC(=O)O)C(=O)N[C@@H](Cc3ccc(O)cc3)C(=O)N[C@@H](CC(=O)O)C(=O)N[C@@H](CCC(=O)O)C(=O)N[C@@H](CCC(=O)O)C(=O)N[C@@H](Cc3ccccc3)C(=O)N[C@@H](Cc3ccccc3)C(=O)N[C@@H]([C@@H](C)O)C(=O)N[C@@H](C)C(=O)N[C@@H](CC(C)C)C(=O)N[C@@H](C)C(=O)N[C@@H](CCCNC(=N)N)C(=O)N[C@@H](CC(C)C)C(=O)N[C@@H](CCCNC(=N)N)C(=O)NCC(=O)NCC(=O)N[C@@H](CC(=O)O)C(=O)N[C@@H]([C@@H](C)CC)C(=O)N2)NC(=O)[C@H](CC(C)C)NC(=O)[C@H](C)NC(=O)[C@@H]2CCCN2C(=O)[C@H](CC(C)C)NC(=O)[C@H](Cc2ccc(O)cc2)NC(=O)[C@H](CCC(N)=O)NC(=O)[C@H](Cc2ccccc2)NC(=O)[C@H](CCCCNC(C)C)NC(=O)[C@H](C)NC(=O)[C@H](CCC(N)=O)NC1=O [Compound C301] | 3 |  | 
5 | C257: exemplary Nectin-4 miniprotein compound ({Biotin-PEG4″}-CDYDEQFFTALKRLRGADICEYIQA[Lys(Me3)]FQYLPGECIEEILDNLGCS-OH; disulfide 1-34, 20-44) [Compound C257] |  | 7.99% | 
6 | C262: exemplary Nectin-4 miniprotein compound ({Biotin-PEG4″}-CEYDEQFFTALARLRGADICEYIQA[Lys(Me3)]FQYLPGLCIEEILDNLGCS-OH; disulfide 1-34, 20-44) [Compound C262] |  | 1.27% | 
7 | C281 ({Biotin-PEG4′}-CEYDEQFFTALARLRGGDICEYIQA[Cit]FQYLPGLCIEEILDNLGCS-OH; disulfide 1-34, 20-44) [Compound C281] |  | 0.006% | 
8 | C282 ({Biotin-PEG4″}-CEYDEQFFTALARLRGGDICEYIQA[Arg(NO2)]FQYLPGLCIEEILDNLGCS-OH; disulfide 1-34, 20-44) [Compound C282] |  | 2.14 (n = 1) % | 
9 | C306: control miniprotein of the proximal tubule cell uptake assay ({Biotin-PEG4′}-CEYDEEFFTALKRLRGGDICYYIKKKFKKVPKLCIEEILDKLGC-NH2; disulfide 1-34, 20-44) [Compound C306, reference compound] |  | 100% | 
10 | {Biotin-PEG4}-CEYDEEFFTAL[Lys(Me2)]RLRGGDICQYIQA[Lys(Me3)]FQYLPALCIEEILDNLGCS-OH (disulfide 1-34, 20-44) [Compound C303] | 3 |  | 
11 | {Biotin-PEG4}-CEYDEEFFTAL[Lys(Me)]RLRGGDICQYIQA[Lys(Me3)]FQYLPALCIEEILDNLGCS-OH (disulfide 1-34, 20-44) [Compound C302] | 2 |  | 
12 | {Biotin-PEG4}-CEYDEEFFTAL[Lys(iPr)]RLRGGDICQYIQA[Lys(Me3)]FQYLPALCIEEILDNLGCS-OH (disulfide 1-34, 20-44) [Compound C304] | 2 |  | 
13 | {Biotin-PEG4}-CEYDEQFFTALARLRGGDICEYIQARFQYLPGLCIEEILDNLGCS-OH (disulfide 1-34, 20-44) [Compound C264] |  | 0.859% | 
